Test results as given in patent publication US5439930A, “Biologically active n-acylprolydipeptides having antiamnestic, antihypoxic and anorexigenic effects” (Russian-American Institute for New Drug Development, priority 1992, dated 1995).
Where a SMILES comes first, the peptide text is derived from it. The star is where a group is joined. PhAc = O=C(Cc1ccccc1)*

What was measured:
[1] = system: memory decline evoked by maximal electroshock (MES) in randomly bred male albino rats; test: Passive avoidance step-through, amnesia by maximal electroshock (MES); type: in vivo
Experimental: Compounds according to the present invention, including the compounds described in Examples 1-11, were checked for their ability to prevent memory decline evoked by maximal electroshock (MES) or scopolamine in the passive avoidance step-through paradigm (equipment of Laffaette Co., USA). The experiments described herein (Examples 12, 13, 15, and 19) were carried out using randomly bred male albino rats of a weight of approximately 180-220 g. […] Amnesia was produced by transcorneal maximal electroshock immediately after learning or scopolamine (1 mg/kg, subcutaneously) administration 30 min. before learning. The retention was tested 24 hours later by the measurement of latency of the entering of the dark compartment.
The degree of antiamnestic activity was estimated according to Buttler's modified formula: [formula]
The higher the magnitude of this indicator the more is the antiamnestic activity.

[2] = system: phenazepam withdrawn male albino rats; test: Pentylenetetrazol kindling seizures during phenazepam withdrawal; type: in vivo
Experimental: (§1) The influence of Compound I on withdrawal syndrome caused by the interruption of chronic administration of benzodiazepine tranquilizer phenazepam (T. A. Voronina et al., In Fenazepam; A. V. Bogatsky, Ed.; Naukova dumka Publishers: Kiev, 1982; pp. 67-169) was studied in experiments on male albino rats weighing 190-200 g at the beginning and 300-350 g at the end of the experiment.
(§2) Phenazepam (2 mg/kg intraperitoneally) or saline (control group of rats) were given once daily for 57 days. The withdrawal syndrome occurred 24-72 hours after the last injection. The withdrawal syndrome in rats consisted in "anxiogenic-like" state aggressiveness and accelerated development of kindled seizures caused by pentylentetrazol. Compound I was administered to the withdrawn rats in doses of 0.5 mg/kg intraperitoneally 15 minutes prior to testing.
The seizure reactions of rats were studied using chemical kindling (C.R. Mason et al., Epilepsia, 13, 663-674 (1972); R. M. Post et al., Handbook of Biological Psychiatry, Part IV, No. 7, Marcel-Dekker (1981) pp. 609-651) produced by small doses of pentylene-tetrazol (35 mg/kg, intraperitoneally) administrated 24, 48 and 72 h after phenazepam withdrawal. The degree of seizures was evaluated by 4 points: tremor (1 point); jerk (2 point); clonic seizures (3 points); tonic seizures and death (4 points).
Our experiments pointed out that the pentylenetetrazol seizures were more pronounced in phenazepam withdrawn rats than in the control one. Compound I diminished the degree of kindling provoked by pentylenetetrazol (Table 14).

[3] = system: rat's offspring damaged by prenatal hypoxia; test: Active avoidance learning of offspring after prenatal hypoxia; type: in vivo, rats
Experimental: (§3) The cognitive impairment in the rat's offspring was provoked by prenatal alcoholization or prenatal hypoxia. Prenatal alcoholization was achieved by peroral administration of 5 g/kg/day (25% solution) ethanol to pregnant female rats during whole pregnancy. To achieve prenatal hypoxia the rats on the 15th day of pregnancy were placed into hypobaric barometric chamber (the "elevating" up 8500 m altitude; exposition for 2 hours).
(§4) The treatment of the offspring was performed from 8th day to 20th day. Compound I was administered in the dose of 0.1 mg/kg/day subcutaneously. The testing was performed on two-month old rats.
(§5) It has been established that both kinds of damage (alcoholization, hypoxia) caused learning disorders in active avoidance test. Early postnatal administration of Compound I restored learning activity (Table 9).

[4] = system: phenazepam withdrawn male albino rats; test: Conflict situation test during phenazepam withdrawal; type: in vivo; settings: 0.5 mg/kg i.p. 15 minutes prior to testing; 24 hours after phenazepam withdrawal
Experimental: as §1, §2
The conflict situation test was used to reveal the "anxiety" of rats (J. R. Vogel et al., Psychopharmacologia, 21, 1-7 (1971)). This experiment involved previous training of water deprivated rats to drink water from a trough. Next day electrical stimulation was given by a 0.5 mA electric current through the trough. A conflict situation was created by clashing of the two different reflexes (drinking and self-defense).
This behavior in the conflict situation test can be considered as "anxiogenic-like" one. […]

[5] = system: damaged stable active avoidance reaction, rats; test: Conditional active avoidance reflex after damage (simultaneous sound and footshock); type: in vivo
Description: (§6) The influence of Compound I on the active avoidance learning was studied in shuttle-box test (Ugo Basile, Italy). The conditioned reflex of active avoidance had been developed for 5 days with 50 daily trials for each rat. The learning task consisted in the rats' avoiding of the electric shock applied through the cage floor directly after sound. Rats could avoid the shock by moving into another compartment of the cage, but only while the sound was present (3 sec.).
In other experiments, stable active avoidance reaction was damaged by simultaneously switching of sound and electrical footshock for 5 trials. Compound I prevented the impairment of avoidance (Table 6).

[6] = system: undertraining of the passive avoidance reflex, rats; test: Passive avoidance with undertraining, different regimes of administration; type: in vivo; settings: 0.5 mg/kg i.p.
[7] = system: active avoidance learning, rats; test: Active avoidance learning in shuttle-box test; type: in vivo
Description: as §6

[8] = system: rat's offspring damaged by prenatal alcoholization; test: Active avoidance learning of offspring after prenatal alcoholization; type: in vivo, rats
Experimental: as §3, §4, §5

[9] = day 1 of learning, 0.1 mg/kg/day s.c. from 8th to 20th day

Compound: CCOC(=O)CNC(=O)[C@@H]1CCCN1C(=O)Cc1ccccc1 [Compound I, N-phenacetyl-L-prolylglycine ethyl ester] (PhAc-Pro-Gly-OEt)
- Latency (sec.) Amnesia + subst. ([1]; 0.1 mg/kg i.p. 15 min before training, MES after learning, retention 24 h later): 25 s
- AA % (antiamnestic activity, Butler's modified formula) ([1]; 0.1 mg/kg i.p. 15 min before training, MES amnesia): 36%
- Antiamnestic activity (Aa) ([1]; 0.1 mg/kg per os, MES amnesia): 19%
- Antiamnestic activity (Aa) ([1]; 0.3 mg/kg per os, MES amnesia): 19%
- Antiamnestic activity (Aa) ([1]; 0.4 mg/kg per os, MES amnesia): 23%
- Antiamnestic activity (Aa) ([1]; 0.5 mg/kg per os, MES amnesia): 43%
- Antiamnestic activity (Aa) ([1]; 0.7 mg/kg per os, MES amnesia): 52%
- Antiamnestic activity (Aa) ([1]; 0.9 mg/kg per os, MES amnesia): 36%
- Antiamnestic activity (Aa) ([1]; 1.0 mg/kg per os, MES amnesia): 10%
- Antiamnestic activity (Aa) ([1]; 1.2 mg/kg per os, MES amnesia): 16%
- Antiamnestic activity (Aa) ([1]; 1.5 mg/kg per os, MES amnesia): 10%
- Seizure Reactions in Points (M ± m) ([2]; 24 h after phenazepam withdrawal, pentylenetetrazol 35 mg/kg i.p., 0.5 mg/kg i.p.): 0.25 ± 0.12 points
- Seizure Reactions in Points (M ± m) ([2]; 48 h after phenazepam withdrawal): 0.87 ± 0.1 points
- Seizure Reactions in Points (M ± m) ([2]; 72 h after phenazepam withdrawal): 0.5 ± 0.24 points
- Rats with reflex of active avoidance [3, 9]: 0%
- Rats with reflex of active avoidance ([3]; day 2 of learning): 0%
- Rats with reflex of active avoidance ([3]; day 3 of learning): 25%
- Rats with reflex of active avoidance ([3]; day 4 of learning): 68%
- Rats with reflex of active avoidance ([3]; day 5 of learning): 88%
- The amount of the Punishment Response [4]: 48.40 ± 12.39
- Percentage of avoidances during 5 trials ([5]; after damage, 1-5th trials): 86.7
- Percentage of avoidances during 5 trials ([5]; after damage, 6-10th trials): 88.9 ± 4.8
- Percentage of avoidances during 5 trials ([5]; after damage, 11-15th trials): 97.8
- Percentage of avoidances during 5 trials ([5]; before damage): 88.9 ± 4.8
- Mnestic activity (Ma), administration 15 min. before retrieval [6]: 32%
- Mnestic activity (Ma), administration 15 min. before trial [6]: 23%
- Mnestic activity (Ma), administration immediately after trial [6]: 14.0%
- Percentage of the rats reached the stable avoidance ([7]; day 1 of learning, 0.1 mg/kg daily i.p. 14 days before and during learning): 0
- Percentage of the rats reached the stable avoidance ([7]; day 2 of learning, 0.1 mg/kg daily i.p.): 15
- Percentage of the rats reached the stable avoidance ([7]; day 3 of learning, 0.1 mg/kg daily i.p.): 43
- Percentage of the rats reached the stable avoidance ([7]; day 4 of learning, 0.1 mg/kg daily i.p.): 57
- Percentage of the rats reached the stable avoidance ([7]; day 5 of learning, 0.1 mg/kg daily i.p.): 67
- Rats with reflex of active avoidance [8, 9]: 0%
- Rats with reflex of active avoidance ([8]; day 1 of retention): 78%
- Rats with reflex of active avoidance ([8]; day 2 of learning): 0%
- Rats with reflex of active avoidance ([8]; day 2 of retention): 89%
- Rats with reflex of active avoidance ([8]; day 3 of learning): 55%
- Rats with reflex of active avoidance ([8]; day 4 of learning): 82%
